Experimental data as given in publication PMC10508264, “Exploring the antioxidant, antimicrobial, cytotoxic and biothermodynamic properties of novel morpholine derivative bioactive Mn(II), Co(II) and Ni(II) complexes – combined experimental and theoretical measurements towards DNA/BSA/SARS-CoV-2 3CL^Pro” (RSC Medicinal Chemistry, 2023).
Several values for one entry are separate records, joined by “and”; a condition that tells them apart may be missing. Equal entries are not always repeated.

Columns and labels:
[1] = system: Mucor indicus; assay: Agar disc diffusion, strain J; format: cell-based; parameters: Inhibition%: concentration or dose not given beside the values; settings: for Diameter of clear zone inhibition: control 6 mm
[2] = DPPH radical scavenging assay; format: biochemical; settings: for % Inhibition, DPPH: 517 nm
[3] = Nitric oxide scavenging assay; format: biochemical; settings: 546 nm
[4] = system: EB–DNA; assay: EB–DNA competitive fluorescence emission titration; format: binding; settings: for KSV (SV method I), DNA / Kass (SV method II), DNA / Kq (SV method I), DNA: EB–DNA; for Kq (SV method I), DNA: τ0 = 10^−8 s; for Kapp (apparent binding constant): KEB = 10^7 M^−1 at 50 μM EB; for LWB method KLB: Lineweaver–Burk
Description: Titrations were performed for all tested compounds (1–200 μM) with pre-incubated EB-bound DNA and the intensity variations between 510 nm and 610 nm were carefully monitored in the presence and absence of DNA (200 μM) during the initial emission and excitation by EB.[31]
Fluorescence emission spectral titration is an efficient approach to evaluating the binding properties of DNA/BSA biomolecules. In general, the fluorescence of EB is quite weak in aqueous solution, but when it is bound to DNA, the fluorescence intensity rises. However, it is a well-known imperative intercalator and is more supportive in distinguishing the binding strength of non-fluorescence test substances. Also, the fluorescence emission spectra of the EB–DNA adduct were examined at 610 nm in the absence and presence of rising quantities of each test compound. When the complex concentration (0–240 μM) rises, the fluorescence intensity of the EB-bound DNA complex diminishes owing to the displacement of EB from CT-DNA. A notable reduction in the fluorescence emission intensity at 610 nm is observed (Fig. S26 ^† and Table 4). The photoelectron shift from DNA's guanine base to the excited states may be the cause of the frequency quenching in the emission of the test substance by DNA. […] Therefore, the competitive binding experiment can make use of EB as a fluorescent probe. […] This is further evidence that complexes (1–3) strongly bind intercalatively with DNA. The observed results agree well with the data from electronic absorption spectral measurements. Additionally, the experiment was extended to examine the binding properties between the test substance and BSA. BSA mostly contains three amino acid residues (tyrosine, tryptophan, and phenylalanine), which give it its inherent fluorescence. […] These two residues also have minimal quenching effects. Tryptophan in BSA fluoresces mostly because of a residue that is trapped inside a hydrophobic cavity. Therefore, it is crucial to model potential binding interactions with the metal complexes. […] The fluorescence intensity also reduces while the test substances (1–3) are steadily blended with the BSA solution, proving that complexes (1–3) interact with BSA via altering the protein's secondary structure, which also leads to an alteration in the tryptophan environment of BSA (Fig. S27 ^†). Furthermore, BSA structural similarities share 76% sequence identity with human serum albumin (HSA), the most prevalent protein in blood plasma that transports ions and proteins to cells and tissues. HSA is able to readily crystallize under the trivalent cations, but BSA has no ready crystallizing property. However, they consist of parallel physicochemical properties to each other.[74,75] Additionally, the Stern–Volmer eqn (12) and (13) were employed to analyze the data (Fig. S28 ^† and Table 4). Additionally, the kq values for DNA and BSA binding were acquired in the range of 1.1636–2.8863 × 10^12 and 2.6390–7.0774 × 10^12 mol^−1 s^−1, respectively. They are also much greater than the collision quenching constant value (2.0 × 10^10 mol^−1 s^−1). Therefore, it is assumed that the static quenching process was brought on by adduct construction between the test compounds and BSA rather than a dynamic collision. However, fluorescence spectroscopy is generally plagued by the inner filter effect (IFE), disturbing spectral analysis. The energizing ray is attenuated due to the highly concentrated solution sample. As a result, strong fluorescence is only seen on surfaces facing the excitation beam.

[Mn+2].[O-]c1ccccc1N=Cc1ccc(N2CCOCC2)cc1.[O-]c1ccccc1N=Cc1ccc(N2CCOCC2)cc1.c1ccc(-c2ccccn2)nc1 [(1)]
Inhibition% [1]: 45% | Diameter of clear zone inhibition [1]: 11 mm | % Inhibition, DPPH ([2]; 40 µM): 11.16% | % Inhibition, DPPH ([2]; 80 µM): 18.62% | % Inhibition, DPPH ([2]; 120 µM): 30.41% | % Inhibition, DPPH ([2]; 160 µM): 37.32% | % Inhibition, DPPH ([2]; 200 µM): 42.47% | % Inhibition, DPPH ([2]; 240 µM): 62.23% and 58.05% | % Inhibition, nitric oxide ([3]; 40 µM): 13.14% | % Inhibition, nitric oxide ([3]; 80 µM): 22.48% | % Inhibition, nitric oxide ([3]; 120 µM): 28.54% | % Inhibition, nitric oxide ([3]; 160 µM): 36.64% | % Inhibition, nitric oxide ([3]; 200 µM): 44.75% | % Inhibition, nitric oxide ([3]; 240 µM): 56.69% | Scatchard analysis KSA [4]: 30094 M⁻¹ | KSV (SV method I), DNA [4]: 16755 M⁻¹ | Kass (SV method II), DNA [4]: 11954 M⁻¹ | Kq (SV method I), DNA [4]: 1.6755e+12 M⁻¹ s⁻¹ | Kapp (apparent binding constant) [4]: 5.926e+06 M⁻¹ | LWB method KLB [4]: 7149 M⁻¹

[Co+2].[O-]c1ccccc1N=Cc1ccc(N2CCOCC2)cc1.[O-]c1ccccc1N=Cc1ccc(N2CCOCC2)cc1.c1ccc(-c2ccccn2)nc1 [(2)]
Inhibition% [1]: 45% | Diameter of clear zone inhibition [1]: 11 mm | IC50 [2]: 200 µM | % Inhibition, DPPH ([2]; 40 µM): 14.20% | % Inhibition, DPPH ([2]; 80 µM): 26.76% | % Inhibition, DPPH ([2]; 120 µM): 31.64% | % Inhibition, DPPH ([2]; 160 µM): 45.67% | % Inhibition, DPPH ([2]; 200 µM): 52.54% | % Inhibition, DPPH ([2]; 240 µM): 62.23% | % Inhibition, nitric oxide ([3]; 40 µM): 14.72% | % Inhibition, nitric oxide ([3]; 80 µM): 23.62% | % Inhibition, nitric oxide ([3]; 120 µM): 31.21% | % Inhibition, nitric oxide ([3]; 160 µM): 39.12% | % Inhibition, nitric oxide ([3]; 200 µM): 46.06% | % Inhibition, nitric oxide ([3]; 240 µM): 61.34% | Scatchard analysis KSA [4]: 33185 M⁻¹ | KSV (SV method I), DNA [4]: 28863 M⁻¹ | Kass (SV method II), DNA [4]: 32903 M⁻¹ | Kq (SV method I), DNA [4]: 2.8863e+12 M⁻¹ s⁻¹ | Kapp (apparent binding constant) [4]: 8.349e+06 M⁻¹ | LWB method KLB [4]: 13497 M⁻¹

[Ni+2].[O-]c1ccccc1N=Cc1ccc(N2CCOCC2)cc1.[O-]c1ccccc1N=Cc1ccc(N2CCOCC2)cc1.c1ccc(-c2ccccn2)nc1 [(3)]
Inhibition% [1]: 54% | Diameter of clear zone inhibition [1]: 13 mm | % Inhibition, DPPH ([2]; 40 µM): 13.08% | % Inhibition, DPPH ([2]; 80 µM): 24.74% | % Inhibition, DPPH ([2]; 120 µM): 30.86% | % Inhibition, DPPH ([2]; 160 µM): 41.06% | % Inhibition, DPPH ([2]; 200 µM): 49.83% | % Inhibition, DPPH ([2]; 240 µM): 60.02% | % Inhibition, nitric oxide ([3]; 40 µM): 14.72% | % Inhibition, nitric oxide ([3]; 80 µM): 23.28% | % Inhibition, nitric oxide ([3]; 120 µM): 29.66% | % Inhibition, nitric oxide ([3]; 160 µM): 38.63% | % Inhibition, nitric oxide ([3]; 200 µM): 45.60% | % Inhibition, nitric oxide ([3]; 240 µM): 59.65% | Scatchard analysis KSA [4]: 32363 M⁻¹ | KSV (SV method I), DNA [4]: 16879 M⁻¹ | Kass (SV method II), DNA [4]: 10350 M⁻¹ | Kq (SV method I), DNA [4]: 1.6879e+12 M⁻¹ s⁻¹ | Kapp (apparent binding constant) [4]: 7.34e+06 M⁻¹ | LWB method KLB [4]: 7786 M⁻¹

Oc1ccccc1N=Cc1ccc(N2CCOCC2)cc1 [(HL), 2-(4-morpholinobenzylideneamino)phenol]
Inhibition% [1]: 45% | Diameter of clear zone inhibition [1]: 11 mm | % Inhibition, DPPH ([2]; 40 µM): 09.45% | % Inhibition, DPPH ([2]; 80 µM): 15.21% | % Inhibition, DPPH ([2]; 120 µM): 26.36% | % Inhibition, DPPH ([2]; 160 µM): 34.56% | % Inhibition, DPPH ([2]; 200 µM): 39.41% | % Inhibition, DPPH ([2]; 240 µM): 52.45% | % Inhibition, nitric oxide ([3]; 40 µM): 11.42% | % Inhibition, nitric oxide ([3]; 80 µM): 18.26% | % Inhibition, nitric oxide ([3]; 120 µM): 24.28% | % Inhibition, nitric oxide ([3]; 160 µM): 33.21% | % Inhibition, nitric oxide ([3]; 200 µM): 40.53% | % Inhibition, nitric oxide ([3]; 240 µM): 51.62% | Scatchard analysis KSA [4]: 19093 M⁻¹ | KSV (SV method I), DNA [4]: 11636 M⁻¹ | Kass (SV method II), DNA [4]: 9606 M⁻¹ | Kq (SV method I), DNA [4]: 1.1636e+12 M⁻¹ s⁻¹ | Kapp (apparent binding constant) [4]: 5.829e+06 M⁻¹ | LWB method KLB [4]: 6985 M⁻¹
